Laboratory results: a melting point compilation (Tetko et al.; mined from patent text by program, amines drawn as free bases though some values may be those of a salt)
Starred links: 1 amine or outer side, 2 acyl side, 3 side chain; linkers in the order of their positions; H or OH if unused. Residues, ends and D or L forms follow the SMILES beside them. Glutaryl = O=C(CCCC(=O)[*:2])[*:1]

SMILES	melting point [°C]
CCNC(=O)C1CCCN1C(=O)C(C)NC(=O)C(C)NC(=O)CCCC(=O)O (stereo not drawn) (Glutaryl-Ala-Ala-Pro-NHEt; configuration not given here)	154 to 156
C#CC1(O)CCC2(C)C(CCC3C2CCC2(C)C(OC)CCC32)C1 (centres undefined)	62 to 65
Cc1ccc(Cc2cnc(NCCCCc3ncc([N+](=O)[O-])cc3C)[nH]c2=O)cn1	141 to 142
CCOc1c(C)c(N2CCN(c3ccc(OC)c(C)c3)CC2)c(C)c2c1OC(C)C2 (centres undefined)	80 to 83
COc1cc(OC(CCc2ccc(Cl)cc2)Cn2ccnc2)ccc1NC(C)=O (centres undefined)	175 to 178
CCOc1cc(CCCN2CCc3cc(OC)c(OC)cc3C2)ccc1NC(=O)c1cccc2c(=O)c3cccc(OC)c3[nH]c12	198
Fc1ccc(CNc2nc(-n3cnc4ccccc43)nc(-n3cnc4ccccc43)n2)cc1	296 to 298
Cc1nc(C(C)(O)c2nc(C)c(C)s2)sc1C	143 to 144
O=C(c1ccc(F)c(F)c1)N1CCC[C@H](c2nc(-c3ccccc3)no2)C1	149 to 151
CC1(C)CCCN(C(=O)[C@H]2C[C@H](C(=O)O)[C@@H](c3ccccc3F)N2C(=O)CNC(=O)Nc2cccc(CC(=O)O)c2)C1 (racemic)	173
CCN1C(=O)OCC1Cc1ccncc1 (centres undefined)	180 to 182
CN=C(N)Nc1nc(-c2cccc(C(=O)NC)c2)cs1	111 to 113
O=C1c2ccccc2S(=O)(=O)N1Cn1nnn(-c2ccccc2)c1=S	140 to 142
Cc1nc2c([N+](=O)[O-])cccn2c1C=O	188 to 189
CC1(C)CN(CC2COc3ccccc3C2)c2nc(-c3ccncn3)cc(=O)n2C1 (racemic)	84 to 86
CCCOc1ccc(/C=C/c2nc3c([nH]2)c(=O)n(CCC)c(=O)n3CCC)cc1	248 to 249
O=CC12CC3CC(CC(C3)C1)C2	132 to 135
N#Cc1cnn(-c2c(Cl)cc(C(F)(F)F)cc2Cl)n1	51 to 53
Oc1ccc(CCN2CCC(Cc3nc4c(O)ncnc4n3Cc3ccc(F)cc3)CC2)cc1	216
CCc1nc(/C=C/c2cn(-c3ccccc3)nc2OCc2ccc(OCc3nc(-c4ccc(C(=O)O)o4)oc3C)c(OC)c2)cs1	154 to 155
Cc1ccc(-c2ccc3c(c2)C=C(C(=O)Nc2ccc(CN4CCC(O)CC4)cc2)CC3)cc1	223 to 224
CCCCOC(=O)N(C)C(CNC(=O)CC1CC(c2ccc(C#N)cc2)=NO1)C(=O)O (centres undefined)	154 to 156
COC(=O)c1ccccc1C(=O)c1ccc(-n2ccnc2)cc1	134 to 136
COc1ccc(-c2c(Cl)c(Cn3cnc4ccccc43)nc3sc4c(c23)CCS(=O)C4)cc1 (centres undefined)	233 to 235
COC(=O)c1cnc(Cl)c(Br)c1	78 to 79

SMILES	melting point [°C]
COc1cc(C2CCN(C(=O)C3CCN3)CC2)ccc1Nc1ncc2ccc(-c3ccccc3OC)n2n1 (centres undefined)	103 to 112
CCCCN(CCCC12CC3CC(CC(C3)C1)C2)C(=O)NCCCc1ccncc1	79.8 to 80.4
Cc1cc(C(O)(c2ccc(OC(F)(F)F)cc2)C(F)(F)F)ccc1N (centres undefined)	127 to 128
CCOC(=O)CC(C)(C)NCC(O)c1ccc(O)c2[nH]c(C(=O)OCC)cc12 (centres undefined)	175 to 178
C=CCn1c(NC=O)nc(N2CCc3ccccc3CC2)c(C#N)c1=O	> 200
COC(=O)CCn1c(=O)n2cc(C)cc2c2ccccc21	89 to 91
N#Cc1ccc(F)cc1-c1ccc(C(F)(F)F)cc1	106 to 107
Cc1cc(N(C)C(=O)OC(C)(C)C)c(C)c(C)c1O	163 to 166
COC(=O)C1=Cc2cc(Br)ccc2N2CCCC2C1 (centres undefined)	136 to 139
[N-]=[N+]=NCC1OC(n2c(Cl)c(C=O)c3cc(Cl)c(Cl)cc32)C(O)C1O (centres undefined)	160 to 161
N[C@H](Cc1ccc2ccccc2c1)C(=O)O	242 to 244
COC(=O)C(C#N)c1ncc(Cl)cc1Cl (centres undefined)	109 to 110
O=C(c1ccc([N+](=O)[O-])cc1)N1CCSC1=S	166 to 167
CCOC(=O)CCCn1nc(-c2c(-c3ccccc3)nn3ccccc23)ccc1=O	71 to 75
COc1cccc2c(=O)n3c(C)c(Br)sc3nc12	198 to 199
O=C(Nc1cccnc1)NC(NC(=O)c1ccccc1)C(Cl)(Cl)Cl (centres undefined)	214 to 215
N#Cc1ccc2c(c1)S(=O)(=O)c1ccccc1C2=O	282 to 283
CC(C)OC(=O)Nc1ccc(-c2ccnc3c(C(=O)c4cccs4)cnn23)s1	210 to 215
CC(=O)Cc1ccc(OCC(O)CN2CCN(c3ccccc3)CC2)cc1 (centres undefined)	121 to 122
O=C(NCCCCCCCNC(=O)c1ccc(Oc2ccccc2)cc1)c1ccc(Oc2ccccc2)cc1	164 to 165
CCCN(c1ccncc1)n1ccc2cc(OC(=O)NC(C)C)ccc21	131 to 133
CC1=C(/C=C/C(C)=C/C=C/C(C)=C\C(=O)O)C(C)(C)C(=O)CC1	178 to 179
CCc1cc(CCCOc2c(C)cc(-c3noc(C(F)(F)F)n3)cc2C)on1	157 to 158
O=CNCc1cccc(-c2ccc(Br)cc2)n1	115 to 119
